Test results as given in patent US7049334B2, “Enhancement of learning and memory and treatment of amnesia” (priority 2001, dated 2006).

Each compound was assayed on rats (spatial memory) (assay: Morris water maze). Settings: L-NAME intracerebroventricular (1 mmole/10 mL) 10 min before first trial of daily training.
Assay type: in vivo
Description: Morris water maze: Morris water maze was performed in a circular pool (224 cm in diameter, 46 cm in height) located in a room with distinctive visual cues. Water was filled to a depth of 36 cm and a transparent plastic platform (25×25 cm, 32 cm in height) was located at the center of a fixed quadrant. Rats were trained for two days in the task environment: free-swimming in the pool without the transparent plastic platform. Each training session was 2 min and the rats were picked up from the pool by an experimenter. Then, rats received 4 consecutive daily training trials for the following six days. During each training trial, each rat was placed into the water randomly from one of the quadrants. The rat had to swim until it climbed onto the plastic platform submerged underneath the water. The time duration from being placed into the water to climbing onto the plastic platform was recorded and defined as escape latency. […] Each rat stayed on the platform for 60 s, which also served as the interval of trial. Compound 1 (1 mg/kg) or vehicle was daily injected to each rat 10 min before the first training trial. After the last training trial of each day, each rat was dried by a towel, and an electric heater was placed in its home cage.
Substantial evidence implicates the hippocampus in acquisition and retention of spatial information. See, e.g., Ohon et al. (1979) Behav. Brain Sci. 2: 316–365; and Barnes (1988) Trend Neurosci. 11: 163–169. The effect of Compound 1 on the acquisition of spatial memory in the Morris water maze was tested. Rats received 4 consecutive training trials every day. Compound 1 (1 mg/kg) was daily injected (i.p., 1 mg/kg) 10 min before the first trial of training. […] The escape latencies of 2˜4 trials were 93.8±8.7 s, 79.3±12/3 s and 57.6±12.5 s for a control group, and 50.4±10.2 s, 47.3±6.8 s and 30.3±10.3 for the Compound 1 group (n=10), respectively. The escape latencies of the first trial on the following 3 training days were also markedly shortened in the Compound 1 group. The escape latencies were 91.1±9.8 s, 47.1±3.9 s and 35.3±6.1 s for the control group, and 55.4±12.8 s, 15.3±2.1 s, and 13.4±1.7 s for the Compound 1 group (n=10), respectively. […] The escape latency is shorter in the Compound 1 group throughout the whole experimental period up to 21 days although Compound 1 was only administered […] for 4 days. The mean escape latency on the day-21 is 13.5±1.8 s and 6.0±0.5 s (n=10 each) for the control group and the Compound 1 group, respectively. From results shown above, Compound 1 is a promising drug for improving learning and memory. Compound 1 was mixed with 1.25% carboxymethylcellulose (CMC) and orally delivered to stomach (10 mg/kg) directly 30 min before the first trial for 6 successive days.
Since L-NAME antagonized Compound 1-induced LTP enhancement in hippocampal slices, in vivo experiments were performed to test the effect of L-NAME on the improved learning and memory provoked by Compound 1. In these experiments, rats chronically implanted with cannulae were injected intracerebroventrically with L-NAME (1 mmole/10 mL) or saline 10 min before the first trial of daily training, concomitant with i.p. injection of Compound 1 (1 mg/kg). […] Intracerebroventricular administration of KT 5823 also impaired the Compound 1-induced enhancement.

Row | Compound | effect of L-NAME on the task
1 | COC(=O)[C@@H](N)CCCNC(=N)N[N+](=O)[O-] [L-NAME, N^G-nitro-L-arginine-methylester, reference compound] | profound amnesia

What follows are compounds tested on Schaffer collateral-CA1 pathway of rat hippocampal slices (assay: LTP induction in Schaffer collateral-CA1 pathway of hippocampal slices (fEPSP slope)). Settings: fEPSP slope 60 min after weak tetanus (50 Hz, 0.5 s); 1.6 μM perfused 3 min before and 3 min after tetanus.
Assay type: cell-based, Wistar rats

Row | Compound | fEPSP [%]
2 | COCc1ccc(-c2nn(Cc3ccccc3)c3ccccc23)o1 [Compound 4] | 216.9
3 | CNCc1ccc(-c2nn(Cc3ccccc3)c3ccccc23)o1 [Compound 2] | 165.9
4 | COC(=O)c1ccc(-c2n[nH]c3ccccc23)o1 [Compound 8] | 180.6
5 | OCc1ccc(-c2nn(Cc3ccccc3)c3cc(F)ccc23)o1 [Compound 3] | 218.9
6 | COC(=O)c1ccc(-c2nn(Cc3ccccc3)c3ccccc23)o1 [Compound 7] | 200.3
7 | OCc1ccc(-c2nn(Cc3ccccc3)c3cc4c(cc23)OCO4)o1 [Compound 6] | 260.3
8 | COc1ccc2c(-c3ccc(CO)o3)nn(Cc3ccccc3)c2c1 [Compound 5] | 180.8

These compounds were tested on hippocampal slices taken from young rats (assay: Plasticity induced by low-frequency stimulation (LTD) in hippocampal slices). Settings: 0.02 Hz stimulation; alone.
Assay type: cell-based, Wistar rats
Description: After decapitation, brains of either adult ([…], for the induction of long-term potentiation) or young (2–3 weeks old, for the induction of long-term depression) Wistar rats were rapidly removed, and the hippocampus was dissected out. Transverse hippocampal slices (450 μm thickness) were immediately placed in an ice-cold cutting buffer containing 124 mM NaCl, 3 mM KCl, 1.0 mM Na2HPO4, 25 mM NaHCO3, 0.5 mM CaCl2, 5.0 mM MgSO4, 10 mM glucose, saturated with 95% O2 and 5% CO2. The slices were then maintained in an interface chamber at room temperature, and perfused at flow rate of 1–2 mL/min with artificial cerebrospinal fluid (ACSF). The composition of ACSF contained 124 mM NaCl, 4.4 mM KCl, 1.0 mM Na2HPO4, 25 mM NaHCO3, 2.0 mM or 2.5 mM CaCl2, 1.0 mM MgSO4, 10 mM glucose, gassed with 95% O2 and 5% CO2. The field Excitatory Postsynaptic Potentials (fEPSP) was evoked by test pulses through a bipolar stimulating electrode placed on the Schaffer collateral/commissural pathway, and recorded from the stratum radiatum of CA1 using a glass micropipette electrode (5–10 MΩ) filled with 2 M NaCl. The test pulse duration was 100 μsec, and test responses were elicited at 0.02 Hz. To record field potentials in the cortico-amygdala pathway, a stimulating electrode was placed in the external capsule, which contained fibers from the auditory cortex to the lateral amygdala. Bicuculine (10 μM) was present in the perfusion solution when the fEPSPs of amygdala were recorded. To increase the effectiveness of fused pyrazolyl compounds that were applied through the perfusion system, the ACSF level in the recording chamber was sufficiently high to cover the hippocampal slices but not to float them. All fused pyrazolyl compounds were perfused in ACSF.
Evoked fEPSPs were recorded and data were analyzed. The initial slope of the fEPSPs was calculated, and the data were expressed as percentages of the average of the base-line slope of the fEPSPs.
Compound 1 on plasticity induced by low-frequency stimulation (LFS): LFS (900 pulses at 1 Hz) was delivered to hippocampal slices taken from young rats ([…]) to induce long-term depression (LTD). Stimulation of hippocampal slices at 1 Hz for 3 min produced no LTD of synaptic transmission. However, this short-duration LFS induced significant LTD in the presence of Compound 1 (83.4±10.9%, n=3). […] A weaker electrical stimulation at 0.02 Hz was delivered in the presence of both nitric oxide donor nitroprusside ([…]) and Compound 1 (1.6 μM). Simultaneous perfusion of the nitric oxide donor nitroprusside (30 μM) and Compound 1 (1.6 μM) induced LTD.

Row | Compound | potentiation of fEPSP at 0.02 Hz stimulation, substance alone
9 | nitroprusside [reference compound] | produced no potentiation
